Results on three molecules are retold here after patent US8598204B2, “1,2-dihydro-2-oxoquinoline compounds as 5-HT4 receptor ligands” (Suven Life Sciences Limited, priority 2009, dated 2013).

Series [1] deals with T1, recombinant human 5-HT4 receptor (Homo sapiens, UniProt Q13639).
T1 construct: expressed in transfected cells
The series is described as follows: Determination of EC50 values for 5-HT4 receptor (CRE-luciferase reporter, CHO cells). Format: cell-based. The settings on record: stable CHO cell line expressing recombinant human 5-HT4 receptor and pCRE-Luc reporter; 4 hours incubation; luciferase activity. Here is the method:
A stable CHO cell line expressing recombinant human 5-HT4 receptor and pCRE-Luc reporter system was used for cell-based assay. The assay offers a non-radioactive based approach to determine binding of a compound to GPCRs. In this specific assay, the level of intracellular cyclic AMP which is modulated by activation or inhibition of the receptor is measured. The recombinant cells harbor luciferase reporter gene under the control of cAMP response element.
The above cells were grown in 96 well clear bottom white plates in Hams F12 medium containing 10% fetal bovine serum (FBS). Prior to the addition of compounds or standard agonist, cells were serum starved overnight. Increasing concentrations of test compounds were added in OptiMEM medium to the cells. The incubation was continued at 37° C. in CO2 incubator for 4 hours. Medium was removed and cells were washed with phosphate buffered saline. The cells were lysed and luciferase activity was measured in a Luminometer. Luminescence units were plotted against the compound concentrations using Graphpad software. EC50 values of the compounds were defined as the concentration required in stimulating the luciferase activity by 50%.
On the technique in general: A reporter such as luciferase makes a cellular process visible.

Series [2] is described as follows: Rodent pharmacokinetic study. Format: in vivo. The settings on record: Wistar, rat, plasma, Wister/Male rats, 5 mg/kg; for bioavailability: Oral versus Intravenous; for AUC(0-t) / Cmax / Tmax / half-life: vehicle Water. Here is the method: Male Wister rats (230-280 grams) obtained from NIN (National Institute of Nutrition, Hyderabad, India) was used as an experimental animal. Three to five animals were housed in each cage. One day prior to dosing day, male wistar rats (225-250 grams) were anesthetized with isoflurane for surgical placement of jugular vein catheter. Animals were kept fasted over night and maintained on a 12 hours light/dark cycle. Three rats were dosed NCE (5 mg/Kg) orally and intravenously on day 0 and day 2.
At each time point blood was collected by jugular vein. Plasma was stored frozen at −20° C. until analysis. The concentrations of the NCE compound in plasma were determined using LC-MS/MS method. Schedule time points: Pre dose 0.25, 0.5, 1, 1.5, 2, 3, 4, 6, 8, 10, 12 and 24 hours after dosing (n=3). The NCE compounds were quantified in plasma by validated LC-MS/MS method using solid phase extraction technique. NCE compounds were quantified in the calibration range of 2-2000 ng/mL in plasma. Study samples were analyzed using calibration samples in the batch and quality control samples spread across the batch.
Pharmacokinetic parameters Cmax, Tmax, AUCt, T1/2 and Bioavailability were calculated by non-compartmental model using software WinNonlin version 5.0.1.

Series [3] in a line: Rodent brain penetration study. Format: in vivo. The following applies: Wistar, rat; Wister/Male rats, 10 mg/kg, Oral, vehicle Water; brain/plasma; read-out: Steady State Brain Penetration (Cb/Cp). Here is the method:
Male Wister rats (230-280 grams) obtained from NIN (National Institute of Nutrition, Hyderabad, India) was used as an experimental animal. Three animals were housed in each cage. Animals were given water and food ad libitum throughout the experiment, and maintained on a 12 hours light/dark cycle.
Brain penetration was determined in discrete manner in rats. One day prior to dosing day, male wistar rats (225-250 grams) were acclimatized. After acclimatization the rats were grouped according to the weight in each group, 3 animals were kept in individual cage and allowed free access to food and water. At each time point (0.5, 1, and 2 hours) n=3 animals were used.
NCE compound was dissolved in water and administered orally at (free base) 10 mg/kg. Blood samples were removed via, cardiac puncture by using isofurane anesthesia the animals were sacrificed to collect brain tissue. Plasma was separated and Brain samples were homogenized and stored frozen at −20° C. until analysis. The concentrations of the NCE compound in plasma and Brain were determined using LC-MS/MS method.
The NCE compounds were quantified in plasma and brain homogenate by validated LC-MS/MS method using solid phase extraction technique. NCE compounds were quantified in the calibration range of 1-500 ng/mL in plasma and brain homogenate. Study samples were analyzed using calibration samples in the batch and quality control samples spread across the batch. Extents of brain-blood ratio were calculated (Cb/Cp).

In series [4] the test system is novel object recognition (cognition) in rats. The series is described as follows: Object recognition task model. Format: in vivo, rat. The settings on record: 10 mg/kg p.o.; for Exploration time mean ± S.E.M, Familiar object / Exploration time mean ± S.E.M, Novel object: choice trial T2 24 hours after T1. Here is the method: The cognition-enhancing properties of compounds of this invention were estimated using a model of animal cognition: the object recognition task model.
Male Wister rats (230-280 grams) obtained from N. I. N. (National Institute of Nutrition, Hyderabad, India) was used as experimental animals. Four animals were housed in each cage. Animals were kept on 20% food deprivation before one day and given water ad libitum throughout the experiment and maintained on a 12 hours light/dark cycle. Also the rats were habituated to individual arenas for 1 hour in the absence of any objects.
One group of 12 rats received vehicle (1 mL/Kg) orally and another set of animals received compound of the formula (I) either orally or i.p., before one hour of the familiar (T1) and choice trial (T2).
The experiment was carried out in a 50×50×50 cm open field made up of acrylic. In the familiarization phase (T1), the rats were placed individually in the open field for 3 minutes, in which two identical objects (plastic bottles, 12.5 cm height×5.5 cm diameter) covered in yellow masking tape alone (a1 and a2) were positioned in two adjacent corners, 10 cm. from the walls. After 24 hours of the (T1) trial for long-term memory test, the same rats were placed in the same arena as they were placed in (T1) trial. Choice phase (T2) rats were allowed to explore the open field for 3 minutes in presence of one familiar object (a3) and one novel object (b) (Amber color glass bottle, 12 cm high and 5 cm in diameter). Familiar objects presented similar textures, colors and sizes. During the T1 and T2 trial, explorations of each object (defined as sniffing, licking, chewing or having moving vibrissae whilst directing the nose towards the object at a distance of less than 1 cm) were recorded separately by stopwatch. Sitting on an object was not regarded as exploratory activity, however, it was rarely observed.
T1 is the total time spent exploring the familiar objects (a 1+a2).
T2 is the total time spent exploring the familiar object and novel object (a3+b).
The object recognition test was performed as described by Ennaceur, A., Delacour, J., 1988, A new one-trial test for neurobiological studies of memory in rats—Behavioural data, Behav. Brain Res., 31, 47-59.

T1 sequence (Q13639 whole entry): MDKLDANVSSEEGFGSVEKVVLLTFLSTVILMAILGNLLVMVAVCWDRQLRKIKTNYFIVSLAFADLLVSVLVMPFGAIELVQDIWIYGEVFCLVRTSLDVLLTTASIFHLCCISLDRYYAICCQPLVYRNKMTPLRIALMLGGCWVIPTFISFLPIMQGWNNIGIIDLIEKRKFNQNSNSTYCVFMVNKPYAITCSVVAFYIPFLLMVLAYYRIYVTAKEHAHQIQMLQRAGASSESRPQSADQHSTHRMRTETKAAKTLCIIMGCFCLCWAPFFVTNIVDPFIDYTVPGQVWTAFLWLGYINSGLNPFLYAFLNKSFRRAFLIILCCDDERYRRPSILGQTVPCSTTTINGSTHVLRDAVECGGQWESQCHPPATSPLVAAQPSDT

On to `CC(C)n1c(=O)c(C(=O)NCCCN2C3CC4CC(C3)CC2C4)c(O)c2ccccc21.Cl` [Example 1, N-[(2-Azatricyclo[3.3.1.1^3,7]dec-2-yl)propyl]-4-hydroxy-1-isopropyl-2-oxo-1,2-dihydroquinoline-3-carboxamide hydrochloride], for which the half-maximal effective concentration (EC50) (commonly the midpoint of the concentration-response curve) in series [1] was 230 nM. For the same molecule, the bioavailability – broadly, the share of a dose that reaches the circulation, judged against a reference dose that is usually intravenous – in series [2] was determined as 26 ± 11%. In series [2] (Intravenous), the AUC(0-t) (commonly the area under the concentration-time curve up to a stated or last time point) was determined as 3020 ± 980 ng·h/mL; the Cmax (as a rule, the maximum level reached in the sampled fluid or tissue) worked out at 1170 ± 241 ng/mL; the time to peak (Tmax) (commonly the time at which the peak concentration occurs) amounted to 0.08 h; the half-life – broadly, the time needed for the level to fall by half in the phase considered – was 1.88 ± 1.15 h. Besides, in series [2] (Oral), the AUC(0-t) was 801 ± 105 ng·h/mL, the Cmax amounted to 211 ± 32 ng/mL, the Tmax was 0.83 ± 0.29 h and the half-life was 2.37 ± 0.6 h. Besides, in series [3], the Kp amounted to 0.2 ± 0.04. In series [4], the Inference entry is “Active”; the “Exploration time mean ± S.E.M, Familiar object” value was found to be 7.87 ± 0.83 s; the “Exploration time mean ± S.E.M, Novel object” value turned out to be 12.56 ± 1.31 s.

As to `CC(C)n1c(=O)c(C(=O)NCCCN2C3CC4CC2CC(O)(C4)C3)c(O)c2ccccc21` [Example 4, N-[(5-Hydroxy-2-azatricyclo[3.3.1.1^3,7]dec-2-yl)propyl]-4-hydroxy-1-isopropyl-2-oxo-1,2-dihydroquinoline-3-carboxamide], the EC50 in series [1] is 421 nM. In series [2], the bioavailability worked out at 34 ± 6%. Also, in series [2] (Intravenous), the AUC(0-t) turned out to be 1660 ± 498 ng·h/mL, the peak level (Cmax) was 803 ± 62 ng/mL, the Tmax is 0.08 h and the half-life is 2.64 ± 0.89 h. Besides, in series [2] (Oral), the AUC(0-t) is 547 ± 126 ng·h/mL, the highest level (Cmax) was 216 ± 78 ng/mL, the Tmax was found to be 0.33 h and the half-life was 1.8 ± 0.36 h. Moreover, the Kp in series [3] turned out to be 0.66 ± 0.1. Moreover, in series [4], the Inference result is “Active”; the “Exploration time mean ± S.E.M, Familiar object” value amounted to 6.72 ± 1.92 s; the “Exploration time mean ± S.E.M, Novel object” value was 11.86 ± 1.65 s.

`CC(C)n1c(=O)c(C(=O)NC23CC4CC(C2)N(C)C(C4)C3)c(O)c2ccccc21` [Example 14, N-(2-Methyl-2-azatricyclo[3.3.1.1^3,7]dec-5-yl)-4-hydroxy-1-isopropyl-2-oxo-1,2-dihydro-quinoline-3-carboxamide]: in series [1], the 50% effective concentration (EC50) is 307 nM. In series [2], this molecule registered a bioavailability of 28 ± 3%. Further, in series [2] (Intravenous), the AUC(0-t) came out at 820 ± 247 ng·h/mL, the highest concentration (Cmax) worked out at 523 ± 57 ng/mL, the Tmax was found to be 0.08 h and the half-life was 3.31 ± 1.47 h. For the same molecule, in series [2] (Oral), the AUC(0-t) came to 223 ± 50 ng·h/mL, the Cmax was 67 ± 17 ng/mL, the Tmax worked out at 0.42 ± 0.14 h and the half-life was 1.67 ± 0.27 h. Further, the Kp in series [3] was 2.97 ± 0.94.
